In EPA's ToxRefDB 2:

Experiments:
[1] = system: rat; conditions: Multigenerational reproductive toxicity study, sprague dawley, Oral, Feed, dose end: 2 generation
[2] = system: rat; conditions: Prenatal developmental toxicity study, wistar, Oral, Gavage/Intubation, dose end: 8 GD, group: maternal
[3] = system: rat; conditions: Combined chronic toxicity/carcinogenicity; fischer; Oral; Feed; dose end: 78 week; group: systemic; systemic / pathology microscopic / spleen / fibrosis
[4] = system: mouse; conditions: Combined chronic toxicity/carcinogenicity, b6c3f1, Oral, Feed, dose end: 78 week, group: systemic
[5] = system: dog; conditions: Subchronic oral toxicity in nonrodent, beagle, Feed, dose end: 90 day, group: systemic, systemic / in life observation / clinical signs / pulse/pressure + systemic / organ weight / liver / nos
[6] = system: dog; conditions: Chronic toxicity; beagle; Oral; Feed; dose end: 52 week; group: systemic; systemic / clinical chemistry / alkaline phosphatase (alp/alk) / alkaline phosphatase (alp/alk) + systemic / clinical chemistry / …
[7] = system: rat; conditions: Combined chronic toxicity/carcinogenicity, sprague dawley, Oral, Feed, dose end: 30 month, group: systemic
[8] = system: mouse; conditions: Carcinogenicity, cd1, Oral, Feed, dose end: 105 week, group: systemic
[9] = system: dog; conditions: Subchronic oral toxicity in nonrodent, beagle, Capsule, dose end: 90 day, group: systemic, systemic / clinical chemistry / alanine aminotransferase (alt/sgpt) / alanine aminotransferase (alt/sgpt) + systemic / clinical chemistry / …
[10] = system: rat; conditions: Multigenerational reproductive toxicity study, sprague dawley, Oral, Gavage/Intubation, dose end: 1 generation
[11] = system: rat; conditions: Subchronic oral toxicity in rodents, sprague dawley, Gavage/Intubation, dose end: 90 day, group: systemic
[12] = system: rat; conditions: Multigenerational reproductive toxicity study, sprague dawley, Oral, Feed, dose end: 2 generation; remark: listed apart in the source
[13] = system: rat; conditions: Subchronic oral toxicity in rodents, sprague dawley, Feed, dose end: 90 day, group: systemic
[14] = system: rat; conditions: Combined chronic toxicity/carcinogenicity, other, Oral, Feed, dose end: 104 week, group: systemic
[15] = system: mouse; conditions: Carcinogenicity, cd1, Oral, Feed, dose end: 78 week, group: systemic
[16] = system: rat; conditions: Subchronic oral toxicity in rodents, fischer, Water, dose end: 13 week, group: systemic
[17] = system: mouse; conditions: Subchronic oral toxicity in rodents, b6c3f1, Water, dose end: 13 week
[18] = system: mouse; conditions: Carcinogenicity, b6c3f1, Oral, Water, dose end: 2 year, group: systemic
[19] = system: mouse; conditions: Carcinogenicity; cd1; Oral; Feed; dose end: 18 month; group: systemic; systemic / pathology microscopic / lung / adenoma
[20] = system: dog; conditions: Chronic toxicity; beagle; Oral; Feed; dose end: 52 week; group: systemic; systemic / clinical chemistry / alkaline phosphatase (alp/alk) / alkaline phosphatase (alp/alk) + systemic / organ weight / liver / absolute…
[21] = system: rat; conditions: Combined chronic toxicity/carcinogenicity; sprague dawley; Oral; [Not Specified]; dose end: 24 month; group: systemic; systemic / hematology / erythrocyte (rbc) count differential / erythrocyte (rbc)
[22] = system: dog; conditions: Subchronic oral toxicity in nonrodent, beagle, Feed, dose end: 13 week, group: systemic
[23] = group: offspring, developmental / developmental landmark / vaginal opening / vaginal opening + systemic / in life observation / body weight / offspring (pup) …
[24] = group: parental, systemic / in life observation / body weight / body weight + systemic / in life observation / body weight / body weight gain
[25] = reproductive / reproductive performance / postimplantation loss / postimplantation loss + systemic / in life observation / body weight / …
[26] = systemic / in life observation / food consumption / food consumption
[27] = systemic / in life observation / body weight / body weight
[28] = systemic / in life observation / body weight / body weight + systemic / pathology microscopic / spleen / hemangiosarcoma
[29] = systemic / clinical chemistry / thyroxine (t4) / thyroxine (t4), total + systemic / organ weight / liver / absolute + systemic / organ …
[30] = systemic / in life observation / body weight / body weight + systemic / in life observation / body weight / body weight gain + systemic / …
[31] = group: offspring, systemic / organ weight / kidney / absolute + systemic / organ weight / liver / absolute
[32] = group: offspring, systemic / organ weight / kidney / absolute + systemic / organ weight / liver / absolute + systemic / in life observation / body weight / …
[33] = group: parental, systemic / organ weight / kidney / absolute + systemic / organ weight / liver / absolute
[34] = group: parental, systemic / organ weight / kidney / absolute + systemic / organ weight / liver / absolute + systemic / in life observation / body weight / …
[35] = group: reproductive, reproductive / reproductive performance / reproductive performance other / NOS + reproductive / reproductive performance / fertility / …
[36] = systemic / in life observation / body weight / body weight gain
[37] = systemic / in life observation / body weight / body weight gain + systemic / clinical chemistry / cholesterol / cholesterol + systemic / …
[38] = group: offspring, systemic / in life observation / body weight / offspring (pup) weight + systemic / in life observation / body weight / offspring (pup) …
[39] = group: parental, systemic / in life observation / body weight / body weight + systemic / in life observation / body weight / body weight gain + systemic / …
[40] = systemic / clinical chemistry / alanine aminotransferase (alt/sgpt) / alanine aminotransferase (alt/sgpt) + systemic / clinical chemistry / …
[41] = systemic / pathology microscopic / liver / vacuolization
[42] = systemic / pathology microscopic / liver / vacuolization + systemic / pathology microscopic / liver / hyperplasia + systemic / pathology …
[43] = systemic / pathology microscopic / liver / hypertrophy + systemic / pathology microscopic / liver / necrosis
[44] = systemic / pathology microscopic / liver / hypertrophy + systemic / pathology microscopic / liver / necrosis + systemic / pathology …
[45] = systemic / hematology / [other] / [other] + systemic / hematology / jolly bodies / jolly bodies + systemic / hematology / leukocyte (wbc) …
[46] = systemic / hematology / leukocyte (wbc) count differential / leukocyte (wbc) + systemic / hematology / lymphocyte / lymphocyte
[47] = group: maternal, reproductive / reproductive performance / estrous cycle / abnormal
[48] = group: systemic, systemic / in life observation / body weight / body weight + systemic / in life observation / body weight / body weight gain + systemic / in…
[49] = systemic / in life observation / body weight / body weight + systemic / organ weight / lung / absolute + systemic / pathology microscopic / …
[50] = systemic / pathology microscopic / liver / angiectasis + systemic / pathology microscopic / liver / eosinophilic focus + systemic / …
[51] = systemic / clinical chemistry / albumin / albumin + systemic / clinical chemistry / albumin-globulin ratio / albumin-globulin ratio + …

CC(C)(C)CC(C)(C)c1ccc(O)cc1 [4-(1,1,3,3-Tetramethylbutyl)phenol]
LEL [1, 23]: 100 mg/kg/day
LOAEL [1, 23]: > 100 mg/kg/day
NEL [1, 23]: 10 mg/kg/day
NOAEL [1, 23]: ≥ 100 mg/kg/day
LEL [1, 24]: 100 mg/kg/day
LOAEL [1, 24]: > 100 mg/kg/day
NEL [1, 24]: 10 mg/kg/day
NOAEL [1, 24]: ≥ 100 mg/kg/day
LOAEL [2, 25]: > 125 mg/kg/day
NOAEL [2, 25]: ≥ 125 mg/kg/day
LEL [2, 26]: 15.6 mg/kg/day
NEL [2, 26]: < 15.6 mg/kg/day

Nc1ccc(Cl)cc1 [4-Chloroaniline]
LEL [3]: 12.5 mg/kg/day
LOAEL [3]: 12.5 mg/kg/day
NEL [3]: < 12.5 mg/kg/day
NOAEL [3]: < 12.5 mg/kg/day
LOAEL [4, 27]: 375 mg/kg/day
NOAEL [4, 27]: < 375 mg/kg/day
LEL [4, 28]: 375 mg/kg/day
NEL [4, 28]: < 375 mg/kg/day

Clc1ccccc1-c1nnc(-c2ccccc2Cl)nn1 [Clofentezine]
LEL [5]: 80 mg/kg/day
LOAEL [5]: 80 mg/kg/day
NEL [5]: < 80 mg/kg/day
NOAEL [5]: < 80 mg/kg/day
LEL [6]: 25 mg/kg/day
LOAEL [6]: 25 mg/kg/day
NEL [6]: 1.25 mg/kg/day
NOAEL [6]: 1.25 mg/kg/day
LEL [7, 29]: 17.3 mg/kg/day
LOAEL [7, 29]: 17.3 mg/kg/day
NOAEL [7, 29]: 1.72 mg/kg/day
NEL ([7]; systemic / pathology microscopic / liver / hypertrophy + systemic / pathology microscopic / liver / vacuolization): 1.72 mg/kg/day
LOAEL [8, 30]: > 544 mg/kg/day
NEL [8, 30]: 5 mg/kg/day
NOAEL [8, 30]: ≥ 544 mg/kg/day
LEL ([8]; systemic / pathology gross / liver / mass): 50.7 mg/kg/day

CCOc1ccc2c(c1)C(C)=CC(C)(C)N2 [Ethoxyquin]
LEL [9]: 4 mg/kg/day
LOAEL [9]: 4 mg/kg/day
NEL [9]: 2 mg/kg/day
NOAEL [9]: 2 mg/kg/day
LEL [10, 31]: 75 mg/kg/day
NEL [10, 31]: < 75 mg/kg/day
LOAEL [10, 32]: > 300 mg/kg/day
NOAEL [10, 32]: ≥ 300 mg/kg/day
LEL [10, 33]: 75 mg/kg/day
NEL [10, 33]: < 75 mg/kg/day
LOAEL [10, 34]: > 300 mg/kg/day
NOAEL [10, 34]: ≥ 300 mg/kg/day
LEL [10, 35]: 300 mg/kg/day
LOAEL [10, 35]: > 300 mg/kg/day
NEL [10, 35]: 150 mg/kg/day
NOAEL [10, 35]: ≥ 300 mg/kg/day
LEL [11, 36]: 40 mg/kg/day
LOAEL [11, 36]: 40 mg/kg/day
NEL [11, 37]: 20 mg/kg/day
NOAEL [11, 37]: 20 mg/kg/day

CCOC(=O)COc1cc(-c2nn(C)c(OC(F)F)c2Cl)c(F)cc1Cl [Pyraflufen-ethyl]
LEL [12, 38]: 721 mg/kg/day
LOAEL [12, 38]: 721 mg/kg/day
NEL [12, 38]: 70.8 mg/kg/day
NOAEL [12, 38]: 70.8 mg/kg/day
LEL [12, 39]: 721 mg/kg/day
LOAEL [12, 39]: 721 mg/kg/day
NEL [12, 39]: 70.8 mg/kg/day
NOAEL [12, 39]: 70.8 mg/kg/day
LOAEL [13, 40]: 1490 mg/kg/day
NEL [13, 40]: 85.6 mg/kg/day
NOAEL [13, 40]: 456 mg/kg/day
LEL ([13]; systemic / organ weight / brain / relative to body weight): 456 mg/kg/day
LEL [14, 41]: 86.7 mg/kg/day
LOAEL [14, 41]: 86.7 mg/kg/day
NEL [14, 42]: 17.2 mg/kg/day
NOAEL [14, 42]: 17.2 mg/kg/day
LEL [15, 43]: 98.3 mg/kg/day
LOAEL [15, 43]: 98.3 mg/kg/day
NEL [15, 44]: 19.6 mg/kg/day
NOAEL [15, 44]: 19.6 mg/kg/day

CCOC(N)=O [Urethane]
LOAEL [16, 45]: > 525 mg/kg/day
NOAEL [16, 45]: ≥ 525 mg/kg/day
LEL [16, 46]: 11 mg/kg/day
NEL [16, 46]: < 11 mg/kg/day
LEL [17, 47]: 147 mg/kg/day
LOAEL [17, 47]: > 1330 mg/kg/day
NEL [17, 47]: 44 mg/kg/day
NOAEL [17, 47]: ≥ 1330 mg/kg/day
LOAEL [17, 48]: > 1330 mg/kg/day
NEL [17, 48]: 44 mg/kg/day
NOAEL [17, 48]: ≥ 1330 mg/kg/day
LEL ([17]; group: systemic, systemic / in life observation / body weight / body weight + systemic / in life observation / body weight / body weight gain + systemic / …): 147 mg/kg/day
LOAEL [18, 49]: 0.325 mg/kg/day
NOAEL [18, 49]: 0.105 mg/kg/day
LEL [18, 50]: 0.035 mg/kg/day
NEL [18, 50]: < 0.035 mg/kg/day

CCC(C)(NC(=O)c1cc(Cl)c(C)c(Cl)c1)C(=O)CCl (stereo not drawn) [Zoxamide]
LEL [19]: 1290 mg/kg/day
LOAEL [19]: > 1290 mg/kg/day
NEL [19]: 326 mg/kg/day
NOAEL [19]: ≥ 1290 mg/kg/day
LEL [20]: 255 mg/kg/day
LOAEL [20]: 255 mg/kg/day
NEL [20]: 50 mg/kg/day
NOAEL [20]: 50 mg/kg/day
LEL [21]: 51 mg/kg/day
LOAEL [21]: > 1060 mg/kg/day
NEL [21]: < 51 mg/kg/day
NOAEL [21]: ≥ 1060 mg/kg/day
LOAEL [22, 51]: 1050 mg/kg/day
NEL [22, 51]: 61.8 mg/kg/day
NOAEL [22, 51]: 322 mg/kg/day
LEL ([22]; systemic / organ weight / liver / absolute + systemic / organ weight / liver / relative to body weight): 322 mg/kg/day
